According to patent publication US20230073777A1, “CYCLIC-AMP RESPONSE ELEMENT BINDING PROTEIN (CBP) AND/OR ADENOVIRAL E1A BINDING PROTEIN OF 300 KDA (P300) DEGRADATION COMPOUNDS AND METHODS OF USE” (CULLGEN (SHANGHAI), INC., priority 2019, published 2023):
pIC50: −log10 of the molar value. “Also recorded” adds a separate entry of the source.

Key:
Type in all cases: cell-based
MV4; 11 = assay: Cell viability assay, MV4; 11; settings: Homo sapiens, 11, Acute monocytic leukemia
Method: (§1) Cells were seeded at a density of 5000 cells per well in 96-well assay plates and treated with test compounds following a 12-point 3-fold serial dilution. Three days later, cell viability was determined using the CellTiter-Glo assay kit according to the manufacturer's instructions. The dose-response curves were determined and IC50 values were calculated using the GraphPad Prism software following a nonlinear regression (least squares fit) method.
(§2) The IC50 value of each compound was determined as described in FIG. 4 and calculated using the GraphPad Prism 5.0 software.

Kasumi-1 = assay: Cell viability assay, Kasumi-1; settings: Homo sapiens, Kasumi-1, Acute myeloid leukemia
Method: as §1, §2

MOLM-13 = assay: Cell viability assay, MOLM-13; settings: Homo sapiens, MOLM-13, Acute monocytic leukemia
Method: as §1, §2

NCI-H929 = assay: Cell viability assay, NCI-H929; settings: Homo sapiens, NCI-H929, Multiple Myeloma
Method: as §1, §2

RPMI-8226 = assay: Cell viability assay, RPMI-8226; settings: Homo sapiens, RPMI-8226, Multiple myeloma
Method: as §1, §2

WSU-DLCL2 = assay: Cell viability assay, WSU-DLCL2; settings: Homo sapiens, WSUDLCL2, WSU-DLCL2, Diffuse large B-cell lymphoma
Method: as §1, §2

Karpas-422 = assay: Cell viability assay, Karpas-422; settings: Homo sapiens, Karpas-422, Diffuse large B-cell lymphoma
Method: as §1, §2

22Rv1 = assay: Cell viability assay, 22Rv1; settings: Homo sapiens, 22Rv1, Prostate carcinoma
Method: as §1, §2

LK-2 = assay: Cell viability assay, LK-2; settings: Homo sapiens, LK-2, Non-small cell lung cancer
Method: as §1, §2

MCF-7 = assay: Cell viability assay, MCF-7; settings: Homo sapiens, MCF7, MCF-7, breast carcinoma
Method: as §1, §2

P300/CBP = assay: Immunoblotting of P300/CBP protein levels in LNCaP or 22RV1 cells; settings: LNCaP cells, 10 nM single dose (FIG. 8)
Method: Specific exemplary bivalent compounds were characterized in LNCaP or 22RV1 cells. LNCaP or 22RV1 cells that express CBP/P300 proteins were treated with GNE-781 or the bivalent compounds disclosed herein (P-001 to P-174) for indicated hours. Cells were collected, lysed and subject to immunoblotting using an antibody specific to P300 or CBP proteins. Tubulin or vinculin was included as the loading control. DMSO was used as the negative control.
Cultured cells or tissue chunks were washed with cold PBS once and lysed in cold RIPA buffer supplemented with protease inhibitors and phosphatase inhibitors (Beyotime Biotechnology). The solutions were then incubated at 4° C. for 30 minutes with gentle agitation to fully lyse cells. Cell lysates were centrifuged at 13,000 rpm for 10 minutes at 4° C. and pellets were discarded. Total protein concentrations in the lysates were determined by BCA assays (Beyotime Biotechnology). Cell lysates were mixed with Laemmli loading buffer to 1× and heated at 99° C. for 5 min. Proteins were resolved on SDS-PAGE and visualized by chemiluminescence. Images were taken by a ChemiDoc MP Imaging system (Bio-Rad). Protein bands were quantitated using the accompanied software provided by Bio-Rad.

NOMO-1 = assay: Cell viability assay, NOMO-1; settings: Homo sapiens, NOMO-1, Acute monocytic leukemia
Method: as §1, §2

NCI-H1703 = assay: Cell viability assay, NCI-H1703; settings: Homo sapiens, NCI-H1703, Non-small cell lung cancer
Method: as §1, §2

| pIC50 (MV4; 11) | pIC50 (MOLM-13) | pIC50 (NCI-H929) | pIC50 (RPMI-8226) | pIC50 (Karpas-422) | pIC50 (22Rv1) | pIC50 (MCF-7) | pIC50 (NCI-H1703) | SMILES | pIC50 (Kasumi-1) | pIC50 (WSU-DLCL2) | pIC50 (LK-2) | degradation of P300/CBP in combination with pomalidomide, MG-132, Bortezomib or MLN4924 (P300/CBP) | pIC50 (NOMO-1) |
| --- | --- | --- | --- | --- | --- | --- | --- | --- | --- | --- | --- | --- | --- |
| 8.05 | 8.11 | 9.05 | 8.43 | 8.21 | 8.49 | 8.66 | – | CNC(=O)N1CCc2c(c(N3CCCc4cc(-c5cnn(C)c5)c(C(F)F)cc43)nn2C2CCN(C(=O)CCCCCCCNc3ccc4c(c3)C(=O)N(C3CCC(=O)NC3=O)C4=O)CC2)C1 (stereo not drawn) [P-007, 3-(7-(difluoromethyl)-6-(1-methyl-1H-pyrazol-4-yl)-3,4-dihydroquinolin-1(2H)-yl)-1-(1-(8-((2-(2,6-dioxopiperidin-3-yl)-1,3-dioxoisoindolin-5-yl)amino)octanoyl)piperidin-4-yl)-N-methyl-1,4,6,7-tetrahydro-5H-pyrazolo[4,3-c]pyridine-5-carboxamide] | 7.06 | 9.40 | 8.59 | compromised; also recorded: neutralized | – |
| < 5.00 | 8.16 | 9.70 | 8.03 | 9.05 | 8.09 | 7.18 | 8.54 | CNC(=O)N1CCc2c(c(N3CCCc4cc(-c5cnn(C)c5)c(C(F)F)cc43)nn2C2CCN(C(=O)CCCCCNc3cccc4c3C(=O)N(C3CCC(=O)NC3=O)C4=O)CC2)C1 (stereo not drawn) [P-034, 3-(7-(difluoromethyl)-6-(1-methyl-1H-pyrazol-4-yl)-3,4-dihydroquinolin-1(2H)-yl)-1-(1-(6-((2-(2,6-dioxopiperidin-3-yl)-1,3-dioxoisoindolin-4-yl)amino)hexanoyl)piperidin-4-yl)-N-methyl-1,4,6,7-tetrahydro-5H-pyrazolo[4,3-c]pyridine-5-carboxamide] | 5.94 | 9.40 | 8.15 | compromised; also recorded: neutralized | 9.10 |
